According to BindingDB's records for doi:10.7270/Q27H1H0J (Srmlsc, 2008):

Molecular target: T1, M1 family aminopeptidase (Plasmodium falciparum (isolate FcB1 / Columbia), UniProt O96935)
T1 sequence (O96935 whole entry): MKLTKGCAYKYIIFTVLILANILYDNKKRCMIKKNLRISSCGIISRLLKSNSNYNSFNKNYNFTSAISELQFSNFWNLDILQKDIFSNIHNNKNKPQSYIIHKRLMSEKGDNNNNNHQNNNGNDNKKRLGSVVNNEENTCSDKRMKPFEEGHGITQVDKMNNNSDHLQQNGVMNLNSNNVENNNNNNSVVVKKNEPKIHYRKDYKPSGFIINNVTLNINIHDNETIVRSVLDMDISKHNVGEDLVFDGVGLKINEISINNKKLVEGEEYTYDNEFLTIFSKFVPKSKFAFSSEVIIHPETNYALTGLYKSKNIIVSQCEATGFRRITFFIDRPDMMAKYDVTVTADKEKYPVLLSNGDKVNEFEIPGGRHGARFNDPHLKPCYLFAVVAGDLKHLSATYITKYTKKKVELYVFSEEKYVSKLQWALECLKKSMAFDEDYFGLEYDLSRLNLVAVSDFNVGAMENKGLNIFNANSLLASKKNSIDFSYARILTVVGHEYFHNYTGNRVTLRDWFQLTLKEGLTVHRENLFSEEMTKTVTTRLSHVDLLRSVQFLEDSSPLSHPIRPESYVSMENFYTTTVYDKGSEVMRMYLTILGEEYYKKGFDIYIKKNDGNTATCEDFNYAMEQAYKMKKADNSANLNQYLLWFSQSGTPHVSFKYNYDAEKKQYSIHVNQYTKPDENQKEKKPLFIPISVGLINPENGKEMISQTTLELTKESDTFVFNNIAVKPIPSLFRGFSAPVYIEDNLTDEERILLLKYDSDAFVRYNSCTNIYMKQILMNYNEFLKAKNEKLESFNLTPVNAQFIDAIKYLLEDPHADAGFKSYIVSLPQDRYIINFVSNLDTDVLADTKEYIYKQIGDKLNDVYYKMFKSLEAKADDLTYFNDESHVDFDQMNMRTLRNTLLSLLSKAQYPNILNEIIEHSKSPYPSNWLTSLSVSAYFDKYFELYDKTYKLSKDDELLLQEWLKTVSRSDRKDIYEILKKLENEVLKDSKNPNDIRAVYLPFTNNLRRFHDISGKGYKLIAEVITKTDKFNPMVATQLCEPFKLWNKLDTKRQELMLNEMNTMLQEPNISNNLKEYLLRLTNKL
Experiment: malaria alanyl aminopeptidase activity blockers – biochemical, fluorogenic H-Leu-NHMec substrate, 1536-well (AID 1445)

## COC1=CC(/C=C(\C#N)c2nc3ccc(C)cc3[nH]2)C=C([N+](=O)[O-])C1=O (centres undefined) [(2Z,3E)-3-(3-methoxy-5-nitro-4-oxocyclohexa-2,5-dien-1-ylidene)-2-(5-methyl-1,3-dihydrobenzimidazol-2-ylidene)propanenitrile]
  IC50: 16.2 µM

## O=C(O)c1cc(-c2ccc(CN=Nc3ccc([N+](=O)[O-])cn3)o2)ccc1Cl [2-chloro-5-[5-[[(5-nitropyridin-2-yl)hydrazinylidene]methyl]furan-2-yl]benzoic acid]
  IC50: 12.7 µM

## O=C(Cn1cnc([N+](=O)[O-])n1)N/N=C/C1C=C(Cl)C=CC1=O (centres undefined) [SMR000312480]
  IC50: 13.3 µM

## CN1C(=O)/C(=C/c2ccc(-c3ccccc3[N+](=O)[O-])o2)S/C1=N/c1ccc(Cl)c(C(=O)O)c1 [2-Chloro-5-[3-methyl-5-[1-[5-(2-nitro-phenyl)-furan-2-yl]-meth-(Z)-ylidene]-4-oxo-thiazolidin-(2Z)-ylideneamino]-benzoic acid]
  IC50: 16.1 µM

## Cc1[nH]n(-c2ccccc2)c(=O)c1C=Nc1ccccc1O
  IC50: 12.8 µM

## COc1ccc(CN=Nc2nc(O)c(CC(=O)O)s2)cc1OCc1ccc(Cl)cc1 [2-[2-[2-[[3-[(4-chlorophenyl)methoxy]-4-methoxy-phenyl]methylidene]hydrazinyl]-4-oxidanylidene-1,3-thiazol-5-yl]ethanoic acid]
  IC50: 66.7 µM

## O=[N+]([O-])c1cc(Br)c(O)c(CN=Nc2nnnn2-c2cccc3ccccc23)c1 [(6E)-2-bromo-6-[[2-(1-naphthalen-1-yltetrazol-5-yl)hydrazinyl]methylidene]-4-nitrocyclohexa-2,4-dien-1-one]
  IC50: 6.79 µM

## CNC(=S)N/N=C1\C(=O)Nc2ccccc21 [1-methyl-3-[(2-oxoindol-3-yl)amino]thiourea]
  IC50: 47.9 µM

## CC(N=Nc1nc(C(=O)O)cs1)c1ccccc1 (centres undefined) [2-[2-(1-phenylethylidene)hydrazinyl]-4-thiazolecarboxylic acid]
  IC50: 34.2 µM

## O=C1NC(=S)NC(=O)C1N=Nc1cc2c(cc1[N+](=O)[O-])OCO2 [5-[(6-nitro-1,3-benzodioxol-5-yl)hydrazinylidene]-2-sulfanylidene-1,3-diazinane-4,6-dione]
  IC50: 26.9 µM

## CC(=O)Nc1ccc(S(=O)(=O)Oc2cccc(CN=Nc3nc(O)c(CC(=O)O)s3)c2)cc1 [(2-{[3-({[4-(acetylamino)phenyl]sulfonyl}oxy)benzylidene]hydrazono}-4-oxo-1,3-thiazolidin-5-yl)acetic acid]
  IC50: 52.8 µM

## CCc1ccc2oc(-c3ccc(OC)cc3)c/c(=N\c3cccc(C(=O)O)c3)c2c1 [(3-carboxyphenyl)-[6-ethyl-2-(4-methoxyphenyl)-1-benzopyran-4-ylidene]ammonium;tetrafluoroborate]
  IC50: 11.9 µM

## COc1cc(Br)c(C2c3c(-c4cccnc4)n[nH]c3OC(=N)C2C#N)cc1OC (centres undefined) [SMR000114618]
  IC50: 44.6 µM

## CCOC(=O)C1C(=O)C(=Cc2ccc(OCC(=O)O)c(OC)c2)SC1=Nc1ccc(OC)cc1 (centres undefined) [2-[4-[(Z)-[4-ethoxycarbonyl-5-[(4-methoxyphenyl)amino]-3-oxidanylidene-thiophen-2-ylidene]methyl]-2-methoxy-phenoxy]ethanoic acid]
  IC50: 87.3 µM

## Cc1cc(C(=O)NN=CC2C=C(Cl)C=C([N+](=O)[O-])C2=O)[nH]n1 (centres undefined) [SMR000414694]
  IC50: 52.3 µM

## CCOC1=CC(/C=N/NC(=O)c2cccs2)C=C([N+](=O)[O-])C1=O (centres undefined) [MLS000698505]
  IC50: 103 µM

## C=c1c(C#N)c2[nH]c(N)c(C#N)c(C)c-2c1=Cc1ccc(-c2ccccc2C(=O)O)o1 [SMR000277284]
  IC50: 52.2 µM

## C=c1[nH]n(-c2ccc(Cl)c(C(=O)O)c2)c(=O)c1=Cc1ccc(-c2ccc(C(=O)O)cc2)o1 [SMR000312901]
  IC50: 2.41 µM

## O=C(O)c1ccc(-c2ccc(CN=Nc3ccc([N+](=O)[O-])cc3)o2)cc1
  IC50: 43.1 µM

## COC1=CC(/C=C(\C#N)c2nc3ccccc3s2)C=C([N+](=O)[O-])C1=O (centres undefined) [MLS000682120]
  IC50: 11 µM

## COC(=O)c1ccc(COc2ccccc2CN=Nc2cccc(C(=O)O)c2)cc1 [MLS000775447]
  IC50: 47 µM

## COC1=CC(C=NNC(=O)[C@H](Cc2c[nH]c3ccccc23)NC(=O)OCC(C)C)C=C([N+](=O)[O-])C1=O (stereo partly drawn) [N-[(2S)-3-(1H-indol-3-yl)-1-[[(E)-(3-methoxy-5-nitro-4-oxo-1-cyclohexa-2,5-dienylidene)methyl]hydrazo]-1-oxopropan-2-yl]carbamic acid 2-methylpropyl ester]
  IC50: 12.2 µM

## C#CCOCCOCCOCCNc1nc(N2CCN(C(=O)C(Cc3cc4ccccc4[nH]3)n3cc(C(N)C(C)CC)nn3)CC2)nc(N2CCN(C(=O)C(Cc3cc4ccccc4[nH]3)n3cc(C(N)C(C)CC)nn3)CC2)n1 (centres undefined) [SMR000391068]
  IC50: 72 µM

## COc1ccccc1C1CC(c2ccc(Cl)cc2)=Nc2nc(-n3c(O)ccc3O)nn21 (centres undefined) [MLS000040652]
  IC50: 31.3 µM

## CCN1C(=O)/C(=N\NC(=O)c2cccs2)c2ccccc21 [MLS000760154]
  IC50: 70.2 µM

## COC1=CC(C=NNC(=O)C(Cc2c[nH]c3ccccc23)NC(=O)OCC(C)C)C=C([N+](=O)[O-])C1=O (centres undefined) [2-methylpropyl N-[3-(1H-indol-3-yl)-1-[2-[(E)-(3-methoxy-5-nitro-4-oxidanylidene-cyclohexa-2,5-dien-1-ylidene)methyl]hydrazinyl]-1-oxidanylidene-propan-2-yl]carbamate]
  IC50: 16.7 µM

## CCC(=O)N1N=C(C2C(=O)N(C)C(=O)N(C)C2=O)CC1c1ccccc1 (centres undefined)
  IC50: 41.9 µM

## CC(NNC(=O)c1ccccc1O)=C1C(=O)c2ccccc2C1=O [MLS000523164]
  IC50: 12.8 µM

## NC(=NNC=c1ccc(=C2C=CC(=O)C(C(=O)O)=C2)o1)N[N+](=O)[O-] [5-(5-{2-[amino(nitroimino)methyl]carbonohydrazonoyl}-2-furyl)-2-hydroxybenzoic acid]
  IC50: 10.2 µM

## COC(=O)CN1C(=O)C2(c3ccccc31)c1c(-c3cccs3)n[nH]c1OC(=N)C2C#N (centres undefined) [methyl (6'-amino-5'-cyano-2-oxo-3'-thien-2-yl-1'H-spiro[indole-3,4'-pyrano[2,3-c]pyrazol]-1(2H)-yl)acetate]
  IC50: 36.7 µM

## O=C(O)Cc1sc(N[N-][CH+]c2ccc(-c3ccc(Cl)c([N+](=O)[O-])c3)o2)nc1O [MLS000689975]
  IC50: 54.1 µM

## CC(NNC(=O)c1cccc(Cl)c1)=C1C(=O)c2ccccc2C1=O
  IC50: 40.8 µM

## CCCCCCC(=O)N(O)c1cc(O)n(-c2ccccc2)c1O [SMR000043985]
  IC50: 66.5 µM

## CC(=O)N1N=C(C2C(=O)N(C)C(=O)N(C)C2=O)CC1c1ccccc1 (centres undefined) [5-(1-acetyl-5-phenylpyrazolidin-3-ylidene)-1,3-dimethyl-1,3-diazinane-2,4,6-trione]
  IC50: 16 µM

## CS(=O)(=O)Nc1nc2n(n1)C(c1ccccc1)CC(c1ccc(Br)cc1)=N2 (centres undefined)
  IC50: 45.3 µM

## O=C(O)c1cccc(NC(=S)NN=Cc2ccccc2OCc2cccc(Br)c2)c1 [SMR000312741]
  IC50: 109 µM

## N#CC(=NNc1ccc(Cl)cc1)C(=O)c1ccccc1 [2-[(4-chlorophenyl)hydrazono]-3-oxo-3-phenylpropanenitrile]
  IC50: 106 µM

## COC1=CC(C=NNC(=O)C(Cc2c[nH]c3ccccc23)NC(=O)OCc2ccccc2)C=C([N+](=O)[O-])C1=O (centres undefined) [benzyl N-[3-(1H-indol-3-yl)-1-[2-[(E)-(3-methoxy-5-nitro-4-oxocyclohexa-2,5-dien-1-ylidene)methyl]hydrazinyl]-1-oxopropan-2-yl]carbamate]
  IC50: 4.75 µM

## O=C1N=c2ccc(Br)cc2=C1NNc1nnn[nH]1 [5-bromanyl-3-[2-(2H-1,2,3,4-tetrazol-5-yl)hydrazinyl]indol-2-one]
  IC50: 26.5 µM

## Cc1ccc(O)c(NC=C2C(=O)c3ccccc3C2=O)c1 [MLS000104939]
  IC50: 71.9 µM

## Cc1ccc(-c2csc(-n3[nH]c(C)c(N=Nc4ccccc4O)c3=O)n2)cc1
  IC50: 3.37 µM

## CCOC(=O)C1C(=O)C(=Cc2ccc(OCC(=O)O)c(OCC)c2)SC1=Nc1ccccc1 (centres undefined) [2-[4-[(Z)-(5-anilino-4-ethoxycarbonyl-3-oxo-2-thiophenylidene)methyl]-2-ethoxyphenoxy]acetic acid]
  IC50: 60.2 µM

## C=c1[nH]n(-c2nnc(C)c(=O)[nH]2)c(=O)c1=Cc1ccc(N(CC)CC)cc1 [3-{4-[1-(4-Diethylamino-phenyl)-meth-(Z)-ylidene]-3-methyl-5-oxo-4,5-dihydro-pyrazol-1-yl}-6-methyl-4H -[1,2,4]triazin-5-one]
  IC50: 42.6 µM

## COc1ccc(OC)c(C2C(C(=O)Nc3cccnc3)=C(C)N=C3CCCC(=O)C32)c1 (centres undefined) [4-(2,5-dimethoxyphenyl)-2-methyl-5-oxo-N-3-pyridinyl-1,4,5,6,7,8-hexahydro-3-quinolinecarboxamide]
  IC50: 52.9 µM
